Marks after values point to notes of the source that are not given here.
Legend:
LLC-bearing mice = assay: Antitumor effect of GLP-2 combined with chemotherapy on LLC-bearing mice (tumor volume, tumor index, inhibition rates); type: in vivo, C57 mice
Method: Healthy LLC cells were inoculated subcutaneously into the left shoulder of 8 healthy male C57 mice. […] This suspension was then injected subcutaneously into the axilla of 52 healthy male C57 mice to establish a solid tumor model. Once all mouse tumors averaged a volume of about 180 mm3, mice were randomized into groups based on tumor volume and were administered the respective drugs or drug solvents via oral gavage or intraperitoneal injection for 18 consecutive days. Longest and shortest diameters of tumors were measured every three days to calculate tumor volume, and mouse weights were recorded every three days. At the end of the experiment, tumors, spleens, and thymuses were harvested and weighed to calculate tumor, spleen, and thymus indices. […] [table] […] Where TRTV is the relative tumor volume in the experimental group, and CRTV is the relative tumor volume in the model control group. Relative tumor volume (RTV)=Vt/V0, where Vt is the tumor volume on day t of dosing, and V0 is the tumor volume at the time of grouping. […] Where T represents the average tumor weight in the treatment group, and C represents the average tumor weight in the model control group. […] Spleen and thymus organ coefficients: After the last dose, spleen, thymus, and tumor weights are measured, and organ coefficients are calculated.

[1] = LLC-bearing mice study: mortality, survival time, body weight, spleen and thymus indices; type: in vivo, C57 mice
Method: Healthy LLC cells were inoculated subcutaneously into the left shoulder of 8 healthy male C57 mice. Once tumors reached a volume of 2,000-3,000 mm3, they were harvested and homogenized to prepare a homogenate suspension. This suspension was then injected subcutaneously into the axilla of 52 healthy male C57 mice to establish a solid tumor model. Once all mouse tumors averaged a volume of about 180 mm3, mice were randomized into groups based on tumor volume and were administered the respective drugs or drug solvents via oral gavage or intraperitoneal injection for 18 consecutive days. Longest and shortest diameters of tumors were measured every three days to calculate tumor volume, and mouse weights were recorded every three days. At the end of the experiment, tumors, spleens, and thymuses were harvested and weighed to calculate tumor, spleen, and thymus indices.
(§1) Spleen and thymus organ coefficients: After the last dose, spleen, thymus, and tumor weights are measured, and organ coefficients are calculated.

H22-bearing mice = assay: Antitumor effect of GLP-2 combined with chemotherapy on H22-bearing mice (tumor volume, tumor index, inhibition rates); type: in vivo, C57 mice; settings: for Tumor growth inhibition rate vs. the model control group: by tumor weight, cisplatin 3 mg/kg i.p. alone or + GLP-2 low dose 50 mg/kg oral
Method: A homogenate suspension of H22 mouse hepatoma was injected subcutaneously under the axilla of 45 healthy male C57 mice to create a solid tumor model. Once all mouse tumors averaged a volume of about 150 mm3, mice were randomized into groups based on tumor volume and were administered the respective drugs or drug solvents via oral gavage or intraperitoneal injection for 18 consecutive days. Longest and shortest diameters of tumors were measured every three days to calculate tumor volume, and mouse weights were recorded every three days. At the end of the experiment, tumors, spleens, and thymuses were harvested and weighed to calculate tumor, spleen, and thymus indices. […] [table] […] Where TRTV is the relative tumor volume in the experimental group, and CRTV is the relative tumor volume in the model control group. Relative tumor volume (RTV)=Vt/V0, where Vt is the tumor volume on day t of dosing, and V0 is the tumor volume at the time of grouping. […] Where T represents the average tumor weight in the treatment group, and C represents the average tumor weight in the model control group. […] Spleen and thymus organ coefficients: After the last dose, spleen, thymus, and tumor weights are measured, and organ coefficients are calculated.

[2] = H22-bearing mice study: mortality, survival time, body weight, spleen and thymus indices; type: in vivo, C57 mice
Method: A homogenate suspension of H22 mouse hepatoma was injected subcutaneously under the axilla of 45 healthy male C57 mice to create a solid tumor model. Once all mouse tumors averaged a volume of about 150 mm3, mice were randomized into groups based on tumor volume and were administered the respective drugs or drug solvents via oral gavage or intraperitoneal injection for 18 consecutive days. Longest and shortest diameters of tumors were measured every three days to calculate tumor volume, and mouse weights were recorded every three days. At the end of the experiment, tumors, spleens, and thymuses were harvested and weighed to calculate tumor, spleen, and thymus indices.
as §1

[3] = tested on: orthotopic H22-bearing mice; assay: Orthotopic H22-bearing mice: liver tumor by small animal in vivo imaging; parameters: species or system C57 mice; settings: Kanglaite soft capsule 1404 mg/kg oral, GLP-2 low dose 130 mg/kg oral
Method: An additional 6 mice served as the normal control group. […] The proposed clinical dose for Kanglaite soft capsules is 0.45 g per capsule, 6 capsules per dose, 4 doses per day, which totals 10.8 g per day. […] This study used the proposed clinical dose as a basis for the experiment. […] [table] Tumor volume measurement: Tumor volume changes were measured weekly using small animal in vivo imaging technology.

[4] = Orthotopic H22-bearing mice study: mortality, body weight, organ coefficients; type: in vivo; settings: Kanglaite soft capsule 1404 mg/kg oral, GLP-2 low dose 130 mg/kg oral
From the text: (§2) An additional 6 mice served as the normal control group.

[5] = Orthotopic H22-bearing mice study: routine blood tests and liver/kidney function indicators; type: in vivo, C57 mice; settings: blood after last dose, cisplatin 4 mg/kg i.p., Kanglaite soft capsule 1404 mg/kg oral, GLP-2 low dose 130 mg/kg oral
Method: as §2
Hematological tests: After the last dose, routine blood tests (WBC and RBC) and biochemical tests (liver and kidney functions) were performed.

[6] = tested on: lymphocyte subtypes CD3+/CD4+ and CD3+/CD8+ in the blood; assay: Orthotopic H22-bearing mice study: blood CD3+/CD4+ and CD3+/CD8+ by flow cytometry; type: in vivo, C57 mice; settings: blood after last dose, cisplatin 4 mg/kg i.p., Kanglaite soft capsule 1404 mg/kg oral, GLP-2 low dose 130 mg/kg oral
Method: as §2
CD4^+and CD8^+content measurement: After the last dose, lymphocyte subtypes CD3^+/CD4^+and CD3^+/CD8^+in the blood were measured using flow cytometry.

[7] = D0, cisplatin 4 mg/kg i.p. alone or + GLP-2 low dose 50 mg/kg oral
[8] = D3, cisplatin 4 mg/kg i.p. alone or + GLP-2 low dose 50 mg/kg oral
[9] = D6, cisplatin 4 mg/kg i.p. alone or + GLP-2 low dose 50 mg/kg oral
[10] = D9, cisplatin 4 mg/kg i.p. alone or + GLP-2 low dose 50 mg/kg oral
[11] = D12, cisplatin 4 mg/kg i.p. alone or + GLP-2 low dose 50 mg/kg oral
[12] = D15, cisplatin 4 mg/kg i.p. alone or + GLP-2 low dose 50 mg/kg oral
[13] = D18, cisplatin 4 mg/kg i.p. alone or + GLP-2 low dose 50 mg/kg oral
[14] = D0, cisplatin 3 mg/kg i.p. alone or + GLP-2 low dose 50 mg/kg oral
[15] = D3, cisplatin 3 mg/kg i.p. alone or + GLP-2 low dose 50 mg/kg oral
[16] = D6, cisplatin 3 mg/kg i.p. alone or + GLP-2 low dose 50 mg/kg oral
[17] = D9, cisplatin 3 mg/kg i.p. alone or + GLP-2 low dose 50 mg/kg oral
[18] = D12, cisplatin 3 mg/kg i.p. alone or + GLP-2 low dose 50 mg/kg oral
[19] = D15, cisplatin 3 mg/kg i.p. alone or + GLP-2 low dose 50 mg/kg oral
[20] = D18, cisplatin 3 mg/kg i.p. alone or + GLP-2 low dose 50 mg/kg oral
[21] = 18 days, cisplatin 3 mg/kg i.p. alone or + GLP-2 low dose 50 mg/kg oral
[22] = 14 days, cisplatin 4 mg/kg i.p.

SMILES: N.N.[Cl][Pt][Cl] [Cisplatin]
- Tumor volume (LLC-bearing mice; [7]): 193 ± 41.9 mm^3
- Tumor volume (LLC-bearing mice; [8]): 350.8 ± 138.5 mm^3
- Tumor volume (LLC-bearing mice; [9]): 692.4± 215.3^+ mm^3
- Tumor volume (LLC-bearing mice; [10]): 956.4± 394^+ mm^3
- Tumor volume (LLC-bearing mice; [11]): 1186.6± 386.4^+ mm^3
- Tumor volume (LLC-bearing mice; [12]): 1388.9± 448.2^+ mm^3
- Tumor volume (LLC-bearing mice; [13]): 1679.8± 439^+ mm^3
- Tumor growth inhibition rate vs. the model control group (LLC-bearing mice; by tumor weight, cisplatin 4 mg/kg i.p. alone or + GLP-2 low dose 50 mg/kg oral): 67.3%
- Number of deaths ([1]; 18 days, cisplatin 4 mg/kg i.p. alone or + GLP-2 low dose 50 mg/kg oral): 2
- Weight [1, 7]: 20.8 ± 1.4 g
- Weight [1, 8]: 20.7 ± 1.3 g
- Weight [1, 9]: 20.4 ± 1 g
- Weight [1, 10]: 19.7± 0.8*^+ g
- Weight [1, 11]: 18.5 ± 0.6*+ g
- Weight [1, 12]: 18.2± 1.2*^+ g
- Weight [1, 13]: 17.9± 1.4*^+ g
- Survival time ([1]; cisplatin 4 mg/kg i.p. alone or + GLP-2 low dose 50 mg/kg oral): 17.1 ± 1.9 days
- Tumor volume (H22-bearing mice; [14]): 167.9 ± 42.2 mm^3
- Tumor volume (H22-bearing mice; [15]): 205.9 ± 122.5 mm^3
- Tumor volume (H22-bearing mice; [16]): 417.4 ± 228.3 mm^3
- Tumor volume (H22-bearing mice; [17]): 577.3 ± 420.2 mm^3
- Tumor volume (H22-bearing mice; [18]): 798± 676.5^+ mm^3
- Tumor volume (H22-bearing mice; [19]): 952.7± 711.9^+ mm^3
- Tumor volume (H22-bearing mice; [20]): 1097± 805.3^+ mm^3
- Tumor growth inhibition rate vs. the model control group (H22-bearing mice): 57.3^+ %
- Tumor growth inhibition rate vs. the model control group (H22-bearing mice; listed as cisplatin): 57.3%
- Mortality rate [2, 21]: 0.0%
- Number of deaths [2, 21]: 0
- Weight [2, 14]: 20.6 ± 1.3 g
- Weight [2, 15]: 20.8 ± 1.3 g
- Weight [2, 16]: 21 ± 1.3 g
- Weight [2, 17]: 21 ± 1.5 g
- Weight [2, 18]: 20.7± 1.4^+ g
- Weight [2, 19]: 20.5± 1.4^+ g
- Weight [2, 20]: 19.9± 1.7^+ g
- Survival time ([2]; cisplatin 3 mg/kg i.p. alone or + GLP-2 low dose 50 mg/kg oral): 18 ± 0 days
- Tumor ([3]; W0, cisplatin 4 mg/kg i.p.): 3756000 ± 2439052 P/s/cm^2/sr
- Tumor ([3]; W1, cisplatin 4 mg/kg i.p.): 12898500 ± 3588676 P/s/cm^2/sr
- Tumor ([3]; W2, cisplatin 4 mg/kg i.p.): 11871333 ± 2780016^& P/s/cm^2/sr
- Mortality rate [4, 22]: 50.0%
- Number of deaths [4, 22]: 3
- Number of surviving animals [4, 22]: 3
- Weight ([4]; W0, cisplatin 4 mg/kg i.p.): 18.5 ± 1.3 g
- Weight ([4]; W1, cisplatin 4 mg/kg i.p.): 16.9 ± 1.8 g
- Weight ([4]; W2, cisplatin 4 mg/kg i.p.): 15.1 ± 1.6 g
- Liver coefficient ([4]; cisplatin 4 mg/kg i.p.): 11.365 ± 3.599%
- Spleen coefficient ([4]; cisplatin 4 mg/kg i.p.): 0.524± 0.295 %
- Thymus coefficient ([4]; cisplatin 4 mg/kg i.p.): 0.078 ± 0.023 %
- ALT [5]: 115 ± 39 U/L
- AST [5]: 771 ± 153 UL
- BUN [5]: 13.52 ± 4.94 mmol/L
- CRE [5]: 18.9 ± 2.7 µmol/L
- RBC [5]: 8.91 ± 0.22 10^12/L
- WBC [5]: 4.41 ± 1.83 10^9/L
- CD3^+/CD4^+ [6]: 4.26 ± 0.04
- CD3^+/CD8^+ [6]: 4.21 ± 0.81

— patent US12383577B2, “Polysaccharide compound with a defined molecular structure that can eliminate the toxic side effects of chemotherapy drugs” (SHENZHEN YANDAI INVESTMENT CO., LTD, priority 2023, dated 2025)
